Read-outs that look alike come from different tables or passages of the source.
Assay: Half-life of ADR destruction by UVA light in the presence of test compounds (decrease in absorbance at 480 nm)
Type: physicochemical
[1] = UVA light, 100 μM test compound alone
[2] = UVA light, 100 μM test compound with 0.5 μM riboflavin

Compound	Half-Life of ADR Destruction, 100 μM Test Compound [1] [min]	Half-Life of ADR Destruction, 100 μM Test Compound and 0.5 μM Riboflavin [2] [min]	also measured
COc1ccc(CCCO)cc1 [3-(4-Methoxyphenyl)-1-Propanol]	43.0	1.68	–
CC(=O)c1ccccc1 [Acetophenone]	43.0	43.0	–
CC(C(=O)O)c1ccc(N2Cc3ccccc3C2=O)cc1 (stereo not drawn) [Indoprofen, 4-(1-Isoindolinone)-α-Methyl Phenylacetic Acid, reference compound]	75.3	25.1	–
O=C(O)c1ccc2c(c1)C(=O)c1ccccc1-2 [9-Fluorenone-2-carboxylic acid]	–	43.0	–
Cc1ccc2cc[nH]c2c1 [6-Methyl Indole]	–	24.2 ± 1.3	–
COC(=O)[C@@H](N)Cc1ccc(O)cc1 [Tyrosine Methyl Ester]	–	43.0	–
NC(=O)NC(=O)c1ccccc1 [Benzoylurea]	43.0	–	–
OCCOc1ccc2ccccc2c1 [2-(2-naphthyloxy) Ethanol]	30.1	2.95	–
CC(=O)c1cccc2ccccc12 [1-Acetonaphthone]	6.69	6.54	–
O=C(O)CCCc1ccc2ccccc2c1 [4-(2-Naphthyl)butyric acid]	43.0	15.1	–
Nc1cccc(S(=O)(=O)O)c1 [3-Amino Benzenesulfonic acid]	–	17.7	–
O=C(O)c1cccc2c1-c1ccccc1C2=O [9-Fluorenone-4-carboxylic acid]	50.2	43.0	–
c1ccc2c(c1)CCCN2 [1,2,3,4-Tetrahydroquinoline]	–	100.3	–
Coumaryl Glucose	43.0	33.5	–
COc1ccc(C=C(C)C=O)cc1 [4-Methoxy-α-Methyl Cinnamaldehyde]	–	20.1	–
Cc1ccc2[nH]cc(C[C@H](N)C(=O)O)c2c1 [5-Methyl-tryptophan]	–	23.2	–
Cn1ccc2ccccc21 [N-ω-methyl-indole]	–	20.1	–
COc1ccc2cc(C#N)ccc2c1 [6-Methoxynaphthalene-2-nitrile]	23.2	20.1	–
c1cc2c([nH]1)CCCC2 [4,5,6,7-tetrahydroindole]	–	14.3	–
Nc1ncnc2c1ncn2[C@@H]1O[C@H](CO)[C@@H](O)[C@H]1O [Adenine-9-ribose (Adenosine), Adenine-9-ribose, reference compound]	50.2	43.0	–
O=S(O)c1ccccc1 [Benzenesulfinic acid]	–	15.8	–
c1ccc2c(c1)CCN2 [Indoline]	–	–	Half-Life of ADR Destruction, 100 μM Test Compound and 0.5 μM Riboflavin: 75.3 min

Compound	Half-Life of ADR Destruction, 100 μM Test Compound [1] [min]	Half-Life of ADR Destruction, 100 μM Test Compound and 0.5 μM Riboflavin [2] [min]	also measured
O=C1c2c(O)cccc2C([C@@H]2O[C@H](CO)[C@@H](O)[C@H](O)[C@H]2O)c2cc(CO)cc(O)c21 (some centres unmarked) [Aloin]	75.3	75.3	–
Nc1ccccc1C(=O)c1ccccc1 [2-Aminobenzophenone]	–	–	Half-Life of ADR Destruction, 100 μM Test Compound and 0.5 μM Riboflavin: 16.7 min
NCC(O)c1ccc(O)cc1 (stereo not drawn) [4-Hydroxy-β-hydroxy Phenethylamine]	–	50.2	–
CC(=O)Oc1ccc2ccccc2c1 [2-Naphthyl acetate]	–	–	Half-Life of ADR Destruction, 100 μM Test Compound (UVA light, test compound alone, +4% DMSO): 43.0 min; Half-Life of ADR Destruction, 100 μM Test Compound and 0.5 μM Riboflavin (UVA light, with 0.5 μM riboflavin, +4% DMSO): 33.5 min
CC(C)(C)c1cc(C(C)(C)C)c(N)c(C(C)(C)C)c1 [2,4,6-Tri-tert-butyl Aniline]	–	43.0	–
O=C(O)Cc1c[nH]c2ccccc12 [Indole-3-acetic acid]	27.4 ± 14.1	3.75 ± 0.22	–
CCCCCCc1ccc(N)cc1 [4-Hexyl Aniline]	–	5.28	–
COc1cccc2cc[nH]c12 [7-Methoxy Indole]	43.0	7.72	–
COc1ccc2ccccc2c1C(=O)O [2-Methoxynaphthalene-1-carboxylic acid]	33.5	2.95	–
Nc1ccc(C[C@H](N)C(=O)O)cc1 [4-Amino Phenylalanine]	55.2 ± 7.1	7.65 ± 5.46	–
O=C(O)C=Cc1ccc(O)c(O)c1 [3,4-Dihydroxy Cinnamic Acid]	75.3	–	–
COc1ccc(C=CC(=O)O)cc1OC [3,4-Dimethoxy Cinnamic Acid]	43.0	5.68	–
Cc1ccc(C)[nH]1 [2,5-Dimethyl Pyrrole]	–	9.12	–
COc1ccc(CCCCO)cc1 [4-(4-Methoxyphenyl)-1-Butanol]	43.0	3.46	–
CN(C)c1ccc(C(=O)O)cc1 [4-(Dimethylamino) Benzoic Acid]	–	75.3	–
O=C(O)C(O)Cc1c[nH]c2ccccc12 (centres unmarked) [3-Indolelactic acid]	–	6.40	–
CCc1cccc(N)c1 [3-Ethyl Aniline]	–	20.1	–
c1ccc2c3c([nH]c2c1)CCCCCC3 [2,3-Cyclooctenoindole]	–	15.8	–
COc1cccc(O)c1 [3-Methoxy Phenol]	43.0	–	–
NCc1ccccc1N [2-Amino Benzylamine]	–	14.3	–
Nc1cccc(OCc2ccccc2)c1 [3-Benzyloxyaniline]	–	–	Half-Life of ADR Destruction, 100 μM Test Compound: 43.0 min; Half-Life of ADR Destruction, 100 μM Test Compound and 0.5 μM Riboflavin: 17.7 min
Nc1cccc(Cc2ccccc2)c1 [3-Benzylaniline]	–	6.54	–

Compound	Half-Life of ADR Destruction, 100 μM Test Compound [1] [min]	Half-Life of ADR Destruction, 100 μM Test Compound and 0.5 μM Riboflavin [2] [min]	also measured
COc1ccc(CC(=O)O)cc1 [4-Methoxy Phenylacetic Acid]	50.2	30.1	–
COc1cc(C=CC(=O)O)cc(OC)c1O [3,5-Dimethoxy-4-Hydroxy Cinnamic Acid]	75.3	50.2	–
O=C(O)c1ccc(O)cc1 [4-Hydroxy Benzoic Acid]	–	100.3	–
Nc1c(F)cccc1F [2,6-Difluoro Aniline]	–	27.4	–
CN(C)c1ccc(CN)cc1 [4-(Dimethylamino) Benzylamine]	–	43.0	–
Cc1[nH]c2ccccc2c1C [2,3-Dimethyl Indole]	–	20.1	–
CC(C(=O)O)c1ccccc1 (stereo not drawn) [α-Methyl-Phenylacetic Acid]	–	50.2	–
Nc1ccccc1F [2-Fluoro Aniline]	–	8.36	–
COc1ccccc1C(C)=O [2′-Methoxyacetophenone]	25.1	21.5	–
Nc1ccccc1C(=O)CC(N)C(=O)O (centres unmarked) [Kynurenine]	–	75.3	–
COc1cc(OC)c2ccc(=O)oc2c1 [5,7-Dimethoxycoumarin]	27.4	23.2	–
Cc1ccc2[nH]ccc2c1 [5-Methyl Indole]	–	8.85	–
CCCCCc1ccc(N)cc1 [4-Pentyl Aniline]	–	4.12	–
COc1cccc(C(=O)O)c1 [3-Methoxy Benzoic Acid]	43.0	–	–
COc1ccccc1C(C)CO (stereo not drawn) [2-Methoxy-β-Methyl-Phenylethyl Alcohol]	43.0	8.14	–
CC(C(=O)O)c1ccc(-c2ccccc2)c(F)c1 (stereo not drawn) [Flurbiprofen, 4-Phenyl-3-Fluoro-α-Methyl Phenylacetic Acid, reference compound]	75.3	50.2	–
O=C(O)c1cc(=O)c2ccccc2o1 [4-Chromone-2-carboxylic acid]	15.8	14.3	–
O=C(c1ccccc1)c1ccc[nH]1 [2-Benzoyl pyrrole]	50.2	33.5	–
O=C(O)C1c2ccccc2-c2ccccc21 [9-Fluorene Carboxylic acid]	50.2	43.0	–
O=c1cc[nH]c(=O)[nH]1 [Uracil]	–	50.2	–
